The record followed here is patent publication US20030096823A1, “Method for the treatment of cardiotoxicity induced by antitumor compounds” (priority 2001, published 2003).

In the data set the test system is heart (myocardial damage) of Crl:CD-1 (ICR) BR female mice. Description: cardiotoxicity in the Bertazzoli mouse model. The format is in vivo. As to conditions: intravenous, expected.

Description: Animals/group: 15 Crl:CD-1 (ICR) BR female mice, about 4 weeks old at the start of treatment, will be used.
Test and control articles and formulations: Epi and rmuAb will be dissolved in normal saline (saline) and distilled water for injection (water), respectively, at the requested concentrations; dex will be dissolved in M/6 sodium lactate at the requested concentration; control animals will receive the above vehicles alone.
Dose levels and justification: The doses of 5 mg/kg/day for epi and 50 mg/kg/day for dex (epi/dex ratio: 1:10) are selected on the basis of the results of previous cardiotoxicity studies in mice. […] The two doses of rmuAb will be decided on the basis of the results of two preliminary studies performed to assess its toxicity and cardiotoxic potential in the above strain of mice.
Administration route: intravenous, via a tail vein, for epi, dex and rmuAb.
Study duration and treatment schedule: Twice a week at weeks 1, 2, 5, 6, and 7 for epi and dex; twice a week for 7 weeks for rmuAb. Dex will be given 30 minutes before epi. […]
Clinical observations and post-mortem examinations: Mortality, clinical signs and general condition will be recorded daily and body weight weekly. […] Cardiomyopathy will be evaluated by scoring the severity and extent of the myocardial lesions according to a qualitative/quantitative score. […]

In the case of `COc1cccc2c1C(=O)c1c(O)c3c(c(O)c1C2=O)C[C@@](O)(C(=O)CO)C[C@@H]3O[C@H]1C[C@H](N)[C@@H](O)[C@H](C)O1` [epi, epirubicin], the cardiotoxicity induced result (5 mg/kg/day epi) is reported as “moderate/marked cardiotoxicity”.
With `C[C@@H](CN1CC(=O)NC(=O)C1)N1CC(=O)NC(=O)C1` [dex, dexrazoxane], for the setting “50 mg/kg/day dex, 30 minutes before epi”, the “effect on myocardial damage produced by epi” value is recorded as “significantly reduce the myocardial damage”.
